Like-named read-outs stand apart in the source and are kept apart here. Values belong to the compound of their own block, whether it stands above or below them.
How the values were obtained:
[1] = target: T1, COX-1 (purified PGHS-1 from ram seminal vesicles) (Ovis aries, UniProt P05979); experiment: COX-1 enzyme inhibition assay (PGE2 ELISA); type: biochemical; conditions: mean ± SD (n = 4)
T1 construct: Purified PGHS-1 from ram seminal vesicles for COX-1; purchased Cayman Chemical Co., Ann Arbor, MI, USA; host or cells: ram seminal vesicles (tissue-purified)
T1 sequence (P05979 25-600): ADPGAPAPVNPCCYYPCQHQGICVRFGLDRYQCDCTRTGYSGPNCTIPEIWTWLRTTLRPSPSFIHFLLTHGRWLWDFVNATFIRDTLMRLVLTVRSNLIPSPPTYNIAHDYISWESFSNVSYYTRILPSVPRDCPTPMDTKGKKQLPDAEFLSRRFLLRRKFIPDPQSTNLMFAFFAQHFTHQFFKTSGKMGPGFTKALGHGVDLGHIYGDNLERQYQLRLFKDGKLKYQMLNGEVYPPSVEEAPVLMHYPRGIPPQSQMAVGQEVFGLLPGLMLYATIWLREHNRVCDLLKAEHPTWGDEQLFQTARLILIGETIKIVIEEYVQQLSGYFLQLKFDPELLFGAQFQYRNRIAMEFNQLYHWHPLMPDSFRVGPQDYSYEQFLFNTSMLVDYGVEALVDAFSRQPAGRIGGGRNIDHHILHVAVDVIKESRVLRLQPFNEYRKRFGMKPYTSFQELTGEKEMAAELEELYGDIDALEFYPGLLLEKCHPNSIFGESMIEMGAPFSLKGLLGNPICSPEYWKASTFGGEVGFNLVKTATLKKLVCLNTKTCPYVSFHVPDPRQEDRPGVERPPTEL
Experimental: (§1) The anti-inflammatory effects of the isolated compounds were also screened on COX-1 and COX-2 enzymes inhibition at a final concentration of 20 µM.
(§2) Purified PGHS-1 from ram seminal vesicles for COX-1 and human recombinant PGHS-2 for COX-2 (Cayman Chemical Co., Ann Arbor, MI, USA) were used for the COX inhibition assays. Experiments were performed in a 96-well plate format, as previously described. Briefly, the incubation mixture contained 180 µL of 0.1 M TRIS/HCl-buffer pH 8.0 (Roth, Karlsruhe, Germany), 50 µM Na2EDTA (only for COX-2, Titriplex III, Merck, Darmstadt, Germany), 18 mM L-epinepherine bitartrate (Fluka, Buchs, Switzerland), 5 µM porcine hematin (MP Biomedicals LLC, Solon, OH, USA), and COX-1 or COX-2 enzymes (0.2 U/well). Ten microliters of tested compounds (dissolved in DMSO with a final concentration of 20 µM) was added and the mixture was pre-incubated for 5 min at room temperature. Thereafter, 10 µL of 5 µM arachidonic acid (Ann Arbor, Michigan USA) was added to the mixture and incubated for 20 min at 37 °C. The reaction was subsequently stopped by adding 10 µL of 10% (v/v) formic acid. The concentration of PGE2 generated in the reaction was quantitatively measured by a competitive PGE2 ELISA kit (Enzo Life Sciences Inc., Farmingdale, NY, USA) according to the manufacturer’s protocol and previous procedure. The absorbance at 405 nm was measured using a Hidex Sense Microplate Reader (Hidex, Turku, Finland). […] The assays were performed in duplicates and repeated in two independent experiments.

[2] = target: T2, COX-2 (human recombinant PGHS-2) (Homo sapiens, UniProt P35354); experiment: COX-2 enzyme inhibition assay (PGE2 ELISA); type: biochemical; conditions: mean ± SD (n = 4)
T2 construct: purchased Cayman Chemical Co., Ann Arbor, MI, USA
T2 sequence (P35354 18-604): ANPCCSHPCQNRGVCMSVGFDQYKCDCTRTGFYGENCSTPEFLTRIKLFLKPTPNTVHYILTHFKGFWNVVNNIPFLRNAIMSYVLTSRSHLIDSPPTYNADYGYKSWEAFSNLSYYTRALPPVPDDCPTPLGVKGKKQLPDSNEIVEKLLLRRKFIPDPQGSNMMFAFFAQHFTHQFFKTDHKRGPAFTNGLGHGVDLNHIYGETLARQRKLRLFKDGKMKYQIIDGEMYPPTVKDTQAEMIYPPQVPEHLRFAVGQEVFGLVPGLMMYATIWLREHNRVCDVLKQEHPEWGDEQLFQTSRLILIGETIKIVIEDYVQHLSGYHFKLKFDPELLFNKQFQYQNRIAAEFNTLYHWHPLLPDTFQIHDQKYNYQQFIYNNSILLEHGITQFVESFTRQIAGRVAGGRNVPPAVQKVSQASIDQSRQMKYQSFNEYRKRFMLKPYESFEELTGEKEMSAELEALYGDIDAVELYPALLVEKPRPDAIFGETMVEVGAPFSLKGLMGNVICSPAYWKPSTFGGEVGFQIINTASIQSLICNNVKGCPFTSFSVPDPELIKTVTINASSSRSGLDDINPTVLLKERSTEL
Experimental: as §1, §2

[3] = tested on: NO production in LPS-IFN-γ-induced RAW 264.7 macrophages; experiment: NO production inhibition assay (Griess), RAW 264.7; type: cell-based, mouse
Experimental: (§3) Compounds 1–8 were screened for their inhibitory effects on nitric oxide production in LPS-IFN-γ activated RAW 264.7 macrophages and BV-2 microglial cells at a final concentration of 50 µM. […] A deprenylated furanoxanthone structure with ortho hydroxy group in ring B as in 7 might be important to enhance the inhibitory effect when compared to 6 and 8.
(§4) The iNOS inhibitory activity of the isolated compounds and respective cytotoxicity was determined using a previously described protocol. Briefly, BV-2 mouse microglial (25,000 cells/well) and RAW 264.7 mouse macrophage (100,000 cells/well) cell lines were seeded into 96-well plates in high glucose Dulbecco’s Modified Eagle’s Medium (DMEM, Gibco) containing 4 mM L-glutamine, 10% FBS, 2% HEPES, 1% penicillin/streptomycin, and 0.5% amphotericin B. After incubation for 24 h at 37 °C in a 5% CO2 humidified atmosphere, the cells were stimulated with 0.05% LPS (Sigma) and 0.025% interferon-γ (Roche Diagnostics, Mannheim, Germany) and treated with different concentrations (5–100 μM) of the tested compounds. The level of NO production in cell culture supernatants was determined using Griess reagent (Sigma) by photocolorimetric analysis after 16 h of incubation, using a Hidex Sense Microplate Reader (Hidex, Turku, Finland). Fifty microliters of XTT reagent (Sigma, Kit II) was then added into the same plates for cell viability measurement after 60 min incubation. L-NMMA (Alexis, Grünberg, Germany) 100 µM was used as the positive control, while 1% DMSO and digitonin (Roth, Karlsruhe, Germany) 400 µM were used as the vehicle and negative control, respectively. The assays were conducted in triplicates and repeated in two independent experiments. IC50 values were determined by graphical analysis using GraphPad Prism 7 (GraphPad Software, La Jolla, CA, USA).

[4] = Cytotoxicity (XTT cell viability), RAW 264.7; type: cell-based; conditions: mouse, RAW 264.7 macrophage cells, LPS/IFN-γ-stimulated, LPS-IFN-γ-induced cells, mean ± SEM (n = 6)
Experimental: as §3, §4

[5] = tested on: NO production in LPS-IFN-γ-induced BV-2 microglial cells; experiment: NO production inhibition assay (Griess), BV-2; type: cell-based, mouse
Experimental: as §3, §4

[6] = Cytotoxicity (XTT cell viability), BV-2; type: cell-based; conditions: mouse, BV-2 microglial cells, LPS/IFN-γ-stimulated, LPS-IFN-γ-induced cells, mean ± SEM (n = 6)
Experimental: as §3, §4

[7] = tested on: KB (human epidermoid carcinoma); set-up: method as in PMID 30153471, PMID 33999337; conditions: MTT; results based on previous work; read-out: IC50 ± SEM, KB; cited from earlier work
[8] = tested on: HeLa S3 (human cervical carcinoma); set-up: method as in PMID 30153471, PMID 33999337; conditions: MTT; results based on previous work; read-out: IC50 ± SEM, HeLa S3; cited from earlier work
[9] = tested on: MCF-7 (human breast adenocarcinoma); set-up: method as in PMID 30153471, PMID 33999337; conditions: MTT; results based on previous work; read-out: IC50 ± SEM, MCF-7; cited from earlier work
[10] = tested on: Hep G2 (human hepatocellular carcinoma); set-up: method as in PMID 30153471, PMID 33999337; conditions: MTT; results based on previous work; read-out: IC50 ± SEM, Hep G2; cited from earlier work
[11] = tested on: HT-29 (human colon adenocarcinoma); set-up: method as in PMID 30153471, PMID 33999337; key to IC50 ± SEM, HT-29: IC50 ≤ 10 µM = good cytotoxicity; 10 µM < IC50 ≤ 30 µM = weak cytotoxicity; inactive (IC50 > 30 µM); conditions: MTT, results based on previous work, cited from earlier work
[12] = tested on: four cancer cells (KB, HeLa S3, MCF-7, and Hep G2); conditions: HeLa S3, MCF-7, Hep G2, earlier studies, read-out: IC50 values against four cancer cells; cited from earlier work
[13] = tested on: KB (human epidermoid carcinoma); experiment: MTT cytotoxic activity assay, KB; type: cell-based; conditions: 72 h, mean ± SEM of three replicates
Experimental: (§5) The cytotoxic activity of the isolated compounds was evaluated using the MTT viability assay with doxorubicin as the positive control and the results are presented in Table 2.
(§6) The MTT colorimetric method was performed to evaluate cytotoxic activity of the isolated compounds against human epidermoid carcinoma (KB; ATCC CCL17), human cervical carcinoma (HeLa S3; ATCC CCL2-2), human colon adenocarcinoma (HT-29; ATCC HTB-38), human breast adenocarcinoma (MCF-7; ATCC HTB-22), and human hepatocellular carcinoma (Hep G2; ATCC HB-8065) cell lines according to the previous method. The cancer cells were cultured in MEM containing 10% fetal bovine serum in the presence of 100 U/mL penicillin and 100 μg/mL streptomycin sulphate (Gibco, Rockville, MD, USA), seeded in a 96-well plate (3000 cells/well), and pre-incubated at 37 °C for 24 h in a 5% CO2 humidified atmosphere. The tested compounds with serial concentrations (0.3–100 μM) were added and incubated for a further 72 h in the same condition. At the end of treatment, 20 µL of MTT solution (5 mg/mL in PBS, Sigma, St. Louis, MI, USA) was added to each well and further incubated for 3 h. After centrifugation at 1400 rpm for 5 min at 4 °C, the supernatant was decanted and DMSO (100 µL/well) was added to allow formazan product solubilization, which was subsequently measured by a microplate reader (Tecan Trading AG, Switzerland) at wavelength 550 nm. Control cells were treated with 0.1% DMSO. Doxorubicin (tested concentrations: 0.01–3.0 μM, Sigma) was used as the positive control. The results are expressed as the mean values of three replicates for three independent experiments. IC50 values were determined by graphical analysis using SigmaPlot 10 (Systat Software Inc., San Jose, CA, USA), obtained by plotting the cell viability percentage versus sample concentration.

[14] = tested on: HeLa S3 (human cervical carcinoma); experiment: MTT cytotoxic activity assay, HeLa S3; type: cell-based; conditions: 72 h, mean ± SEM of three replicates
Experimental: as §5, §6

[15] = final concentration of 50 µM, preliminary screen

SMILES: COc1c(O)cc2c(c1O)C(=O)O[C@@H](c1ccccc1)C2 [Compound 2, (−)-annulatomarin]
inhibition at 20 µM [1]: < 10%
% Inhibition at 20 µM, COX-2 [2]: 10.4 ± 5.0%
inhibition at 20 µM [2]: > 10%

SMILES: COc1c(O)cc2c(c1O)C(=O)O[C@@H](c1ccccc1O)C2 [Compound 3, 2′-hydroxyannulatomarin]
inhibition at 20 µM [1]: 24.2 ± 12.3%
inhibition at 20 µM [2]: < 10%

SMILES: COc1c(O)ccc2c(=O)c3c(O)cc(O)cc3oc12 [Compound 13, 1,3,6-trihydroxy-5-methoxyxanthone]
IC50 [13]: 11.4 ± 1.7 µM
IC50 [14]: 15.2 ± 1.3 µM

SMILES: [H]/N=C(/NC)NCCC[C@H](N)C(=O)O [L-NMMA, reference compound]
inhibition at 100 µM ([3]; Mus musculus, RAW264.7, at 100 µM, read-out: inhibition of NO production, RAW 264.7 (positive control)): 64.1%
inhibition at 100 µM ([5]; Mus musculus, BV-2, at 100 µM, read-out: inhibition of NO production, BV-2 (positive control)): 44.1%

Continued, in another order:

IC50 ([3]; Mus musculus, RAW264.7, LPS-IFN-γ-induced, 16 h, mean ± SEM (n = 6), read-out: IC50, iNOS (inhibition of NO production), RAW 264.7): 16.4 ± 4.5 µM
IC50 ([5]; Mus musculus, BV-2, LPS-IFN-γ-induced, 16 h, mean ± SEM (n = 6), read-out: IC50, iNOS (inhibition of NO production), BV-2): 13.8 ± 1.6 µM
SMILES: CC1(C)c2c(cc3oc4ccc(O)c(O)c4c(=O)c3c2O)O[C@@H]1CO [Compound 5, 3′-hydroxycalothorexanthone]
suppression of NO production, RAW 264.7 [3, 15]: over 70%
IC50 at 16 h [4]: > 200 µM
suppression of NO production, BV-2 [5, 15]: over 70%
IC50 at 16 h [6]: 74.7 ± 2.1 µM

inhibition at 20 µM [1]: 31.2 ± 21.7%
inhibition at 20 µM [2]: < 10%
SMILES: C[C@@H]1Oc2cc(O)c3c(=O)c4cccc(O)c4oc3c2C1(C)C [Compound 6, pancixanthone B]
IC50 [7]: 12.1 ± 0.1 µM
IC50 [8]: 20.7 ± 0.6 µM
IC50 [9]: 15.6 ± 0.3 µM
IC50 [10]: 22.8 ± 0.4 µM
IC50 ± SEM, HT-29 [11]: inactive

inhibition at 20 µM [1]: 24 ± 15%
inhibition at 20 µM [2]: < 10%
SMILES: CC(C)=CCc1c2c(c3oc4c(O)c(O)ccc4c(=O)c3c1O)C(C)(C)[C@H](C)O2 [Compound 8, formoxanthone C]
IC50 [7]: 0.2 ± 0.1 µM
IC50 [8]: 0.3 ± 0.1 µM
IC50 [9]: 4.9 ± 0.4 µM
IC50 [10]: 3.8 ± 0.5 µM
IC50 ([11]; read-out: IC50 ± SEM, HT-29): 21.9 ± 1.2 µM
IC50 [12]: < 10 µM

inhibition at 20 µM [1]: 22.6 ± 2.2%
inhibition at 20 µM [2]: < 10%
SMILES: O=c1c2cccc(O)c2oc2ccc(O)c(O)c12 [Compound 9, 1,2,5-trihydroxyxanthone]

inhibition at 20 µM [1]: 18.3 ± 12.1%
inhibition at 20 µM [2]: < 10%
SMILES: COc1cc(O)c2c(=O)c3ccc(O)c(OC)c3oc2c1 [Compound 14, 1,6-dihydroxy-3,5-dimethoxyxanthone]
